Reference: patent US20100297688A1, “METHOD FOR DIAGNOSING OR PREDICTING SHORT STATURE IN HUMANS” (priority 2009, published 2010)
No end group written: not given here.

Assays:
[1] = adult dogs, after treatment with GH for 3 months, histomorphometry; cited from earlier work
GH secretion = experiment: GHRH test (GH stimulation test) in children with short stature; type: in vivo, human; details: GHRH 1 μg/kg IV at 0 min; GH peaks induced consistently in the first 30 min
Description: Patients. A GHRH test was conducted after overnight fasting, modified with samples that were obtained at 3, 5, and 10 minutes in addition to routine protocol collection of samples at 30 minutes, 60 minutes, 90 minutes and 120 minutes following GHRH injection (GHRH1-29: GEREF, SERONO, Italy; 1 μg/kg IV at 0 min). A total of 19 children (8.6±3.2, range from 2.5 yrs to 14 yrs, 5 girls) who suffered SS (short stature) (Ht−2.5±0.6 SDS) were administered GHRH 1 μg/kg IV at 0 min and blood samples were obtained at 0, 3, 5, 10, 30, 60, 90 and 120 min. GH was determined in all samples.
Blood sample processing. GH and IGF-1 were analyzed at Esoterix (Texas, U.S.). IGF1 was measured by radioimmunoassay after acid-ethanol extraction and with IGF2 blocking. A 100 uL of sample was initially used for the procedure. Growth hormone was tested by ICMA, requires min amount of 0.2 ml of serum, preparation include 1 mL serum, separate within one hour that was shipped frozen in plastic vial (http://www.esoterix.com/prodserv/test_menu!)
AUC measurements for GH were calculated according trapezoid rule (Tai MM 1994 A mathematical model for the determination of total area under glucose tolerance and other metabolic curves. Diabetes Care 17:p 152-4).

Row | Substance | increase in cortical bone mass [1] [%] | time of GH peak after GHRH (GH secretion) [min]
1 | Growth hormone [GH] | 2 | 
2 | Growth hormone releasing hormone (YADAIFTNSYRKVLGQLSARKLLQDIMSR; ends and bridges not checked; UniProt P01286 32-60, looked up, fragment) [GHRH, GHRH1-29: GEREF, SERONO, Italy; stimulator of GH secretion] |  | ≤ 30
